We go through 25 compounds from patent publication US20250388604A1, “Compounds and Their Use as PDE4 Activators” (Mironid Limited, priority 2022, published 2025).

Molecules are shown by their SMILES.

The first assay has as its system m-IMCD3 cells. Description: Inhibition of PGE2-stimulated in vitro cyst formation in m-IMCD3 cells. In kind it is cell-based, mouse. The settings on record: 3 μM; mean cyst area, 100% for (DMSO + PGE2) and 0% for DMSO control; 6 days of culture. The protocol:
HEK 293 and MDCK cells (Public Health England, Cell Culture Collections) were maintained in Dulbecco's Modified Eagle's Medium (DMEM) supplemented with 10% (v/v) fetal bovine serum (FBS) (Seralab), 2 mM L-glutamine and 100 U/mL penicillin streptomycin cocktail (ThermoFisher); termed complete media. Clonal HEK 293 cell lines were maintained in complete media supplemented with 0.6 mg/ml G418 (Enzo Life Sciences). Mouse inner medullary collecting duct (m-IMCD3) cells [American Type Culture Collection (ATCC)] were maintained in media consisting of DMEM/Hams F-12 50/50 Mix (DMEM F12; Corning) supplemented with penicillin streptomycin cocktail (100 U/mL) and FBS (10% v/v) (DMEM F12-10% FBS).
The mouse Inner Medullary Collecting Duct cell line (m-IMCD3) spontaneously forms cystic spheroids in 3D culture with a Type 1 collagen/Matrigel extracellular matrix. This process can be stimulated with agents which raise intracellular cAMP and is used as an in vitro model for the formation of cystic structures in the kidneys of patients with ADPKD.
Rat Collagen I (Fisher Scientific) is prepared on ice by neutralising with 1M NaOH and diluting with a 2× volume of DMEM/F12+10% FBS. This is mixed 1:1.1 with ice cold Matrigel (Corning) for coating plates (coating mix), and 1:0.93 with Matrigel for cell plating (plating mix).
The assay is conducted in the wells of a 96-well plate culture dish using a total volume of 130 μL of collagen/Matrigel/DMEM F12-10% FBS suspension in growth media for each matrix plug per individual well. Initially, 30 μL of collagen/Matrigel/DMEM F12-10% FBS (coating mix) is added into the well of a 96 well plate and the collagen is set to a gel by incubating at 37° C. for at least 15 minutes. A second layer of 100 μL collagen/Matrigel suspension (plating mix) containing m-IMCD3 cells (2.75×10^6 m-IMCD3 cells per 96-well plate) is layered over the coating mix and the collagen/Matrigel/cell mix again set to a gel by incubating at 37° C. Cell cultures are maintained at 37° C. in an atmosphere of 5% CO2, 95% air.
Between 18 and 24 h after plating, test compound(s) as DMSO stock solutions [0.1% (v/v) final DMSO concentration] and PGE2 (100 nM final concentration) in DMEM F12-10% FBS are added in quadruplicate wells per condition. Media, together with the test compound and PGE2 are replenished after 2 or 3 days. After 6 days of culture z stack images of the wells are captured using the Nikon Eclipse Ti2-E microscope. Nikon General Analysis software is used to measure the following parameters in each well: the mean cyst area, the number of cysts, and the total cyst area.
PDE4 long form activators inhibited in vitro cyst formation in m-IMCD3 cells. Data are shown in Table 4 as mean cyst area (%), compared to 100% for (DMSO+PGE2) and 0% for DMSO control.
As to `CC(O)(C(=O)N1CCc2nc(N3C4CCC3CNC4)sc2C1)C1CCCC1` (single isomer, unassigned) [Example 255, 1-(2-(3,8-diazabicyclo[3.2.1]octan-8-yl)-6,7-dihydrothiazolo[5,4-c]pyridin-5(4H)-yl)-2-cyclopentyl-2-hydroxypropan-1-one], the “% Cyst area after incubation with 3 μM test compound” value is given as −5%.

Still in this assay, the particulars now being: Mus musculus, mIMCD3, 144 h, 3 μM; mean cyst area, 100% for (DMSO + PGE2) and 0% for DMSO control; 6 days of culture; read-out: % Cyst area after incubation with 3 μM test compound.
As for `O=C(c1cccc(OC(F)F)c1)N1CCc2nc(N3C4CCC3CNC4)sc2C1` [Example 206, (2-(3,8-diazabicyclo[3.2.1]octan-8-yl)-6,7-dihydrothiazolo[5,4-c]pyridin-5(4H)-yl)(3-(difluoromethoxy)phenyl)methanone], the activity at 3 µM came out at 6%. Take `N#Cc1ccc(C(=O)N2CCc3nc(N4C5CCC4CNC5)sc3C2)cc1` [Example 239, 4-(2-(3,8-diazabicyclo[3.2.1]octan-8-yl)-4,5,6,7-tetrahydrothiazolo[5,4-c]pyridine-5-carbonyl)benzonitrile]: the activity at 3 µM was -2%. In the case of `CC(C)Oc1ccccc1C(=O)N1CCc2nc(N3C4CCC3CNC4)sc2C1` [Example 211, (2-(3,8-diazabicyclo[3.2.1]octan-8-yl)-6,7-dihydrothiazolo[5,4-c]pyridin-5(4H)-yl)(2-isopropoxyphenyl)methanone], the activity at 3 µM was 40%. The same measure, in the same setting: as for `Cn1c(C(=O)N2CCc3nc(N4C5CCC4CNC5)sc3C2)cc2ccccc21` [Example 189, (2-(3,8-diazabicyclo[3.2.1]octan-8-yl)-6,7-dihydrothiazolo[5,4-c]pyridin-5(4H)-yl)(1-methyl-1H-indol-2-yl)methanone], the figure is -1%; as for `O=C([C@@H](O)C1CCCC1)N1CCc2nc(N3C4CCC3CNC4)sc2C1` [Example 170, (2S)-1-(2-(3,8-diazabicyclo[3.2.1]octan-8-yl)-6,7-dihydrothiazolo[5,4-c]pyridin-5(4H)-yl)-2-cyclopentyl-2-hydroxyethan-1-one], 5%. In the case of `Cc1cccc(C(=O)N2CCc3nc(N4C5CCC4CNC5)sc3C2)c1` [Example 195, (2-(3,8-diazabicyclo[3.2.1]octan-8-yl)-6,7-dihydrothiazolo[5,4-c]pyridin-5(4H)-yl)(m-tolyl)methanone], the activity at 3 µM is 1%. On the same count and under the same terms, as for `O=C(c1ccc(C(F)F)nc1)N1CCc2nc(N3C4CCC3CNC4)sc2C1` [Example 243, (2-(3,8-diazabicyclo[3.2.1]octan-8-yl)-6,7-dihydrothiazolo[5,4-c]pyridin-5(4H)-yl)(6-(difluoromethyl)pyridin-3-yl)methanone], the figure is 10%; as for `O=C(c1cccc2c1OCO2)N1CCc2nc(N3C4CCC3CNC4)sc2C1` [Example 234, (2-(3,8-diazabicyclo[3.2.1]octan-8-yl)-6,7-dihydrothiazolo[5,4-c]pyridin-5(4H)-yl)(benzo[d][1,3]dioxol-4-yl)methanone], 1%; as for `O=C(c1cccc2c1OCC2)N1CCc2nc(N3C4CCC3CNC4)sc2C1` [Example 230, (2-(3,8-diazabicyclo[3.2.1]octan-8-yl)-6,7-dihydrothiazolo[5,4-c]pyridin-5(4H)-yl)(2,3-dihydrobenzofuran-7-yl)methanone], 22%.

Staying with this assay, now noted: Mus musculus, mIMCD3, 144 h, 10 μM; mean cyst area, 100% for (DMSO + PGE2) and 0% for DMSO control; 6 days of culture; read-out: % Cyst area after incubation with 10 μM test compound.
Consider `O=C(N1CCCC1)N1CCc2nc(N3C4CCC3CNC4)sc2C1` [Example 60, (2-(3,8-diazabicyclo[3.2.1]octan-8-yl)-6,7-dihydrothiazolo[5,4-c]pyridin-5(4H)-yl)(pyrrolidin-1-yl)methanone], for which the activity at 10 µM amounted to 2%. For the compound `CC1(C)CCCN1C(=O)N1CCc2nc(N3C4CCC3CNC4)sc2C1` [Example 120, (2-(3,8-diazabicyclo[3.2.1]octan-8-yl)-6,7-dihydrothiazolo[5,4-c]pyridin-5(4H)-yl)(2,2-dimethylpyrrolidin-1-yl)methanone], the activity at 10 µM was found to be 2%. Still for that read-out and setting: the value for `O=C(Cc1ccc(F)cc1F)N1CCc2nc(N3C4CCC3CNC4)sc2C1` [Example 144, 1-(2-(3,8-diazabicyclo[3.2.1]octan-8-yl)-6,7-dihydrothiazolo[5,4-c]pyridin-5(4H)-yl)-2-(2,4-difluorophenyl)ethan-1-one] was 13%; that for `CC(C)(C(=O)N1CCc2nc(N3C4CCC3CNC4)sc2C1)C(F)(F)F` [Example 32, 1-(2-(3,8-diazabicyclo[3.2.1]octan-8-yl)-6,7-dihydrothiazolo[5,4-c]pyridin-5(4H)-yl)-3,3,3-trifluoro-2,2-dimethylpropan-1-one] was 1%; that for `O=C(N1CCc2nc(N3C4CCC3CNC4)sc2C1)C1(c2ccccc2)CC1` [Example 33, (2-(3,8-diazabicyclo[3.2.1]octan-8-yl)-6,7-dihydrothiazolo[5,4-c]pyridin-5(4H)-yl)(1-phenylcyclopropyl)methanone] was 8%. On the same count and under the same terms, as for `O=C(CC1CCC(F)(F)CC1)N1Cc2nc(N3C4CCC3CNC4)sc2C1` [Example 67, 1-(2-(3,8-diazabicyclo[3.2.1]octan-8-yl)-4,6-dihydro-5H-pyrrolo[3,4-d]thiazol-5-yl)-2-(4,4-difluorocyclohexyl)ethan-1-one], the figure is -4%; as for `O=C(N1CCc2nc(N3C4CCC3CNC4)sc2C1)N1CCC2(CCCC2)C1` [Example 122, (2-(3,8-diazabicyclo[3.2.1]octan-8-yl)-6,7-dihydrothiazolo[5,4-c]pyridin-5(4H)-yl)(2-azaspiro[4.4]nonan-2-yl)methanone], -8%. Still for that read-out and setting: as for `CC1(CC(=O)N2CCc3nc(N4C5CCC4CNC5)sc3C2)CCC1` [Example 130, 1-(2-(3,8-diazabicyclo[3.2.1]octan-8-yl)-6,7-dihydrothiazolo[5,4-c]pyridin-5(4H)-yl)-2-(1-methylcyclobutyl)ethan-1-one], the figure is -5%; as for `COC(C(=O)N1CCc2nc(N3C4CCC3CNC4)sc2C1)c1ccc(F)cc1` (stereo not shown) [Example 131, 1-(2-(3,8-diazabicyclo[3.2.1]octan-8-yl)-6,7-dihydrothiazolo[5,4-c]pyridin-5(4H)-yl)-2-(4-fluorophenyl)-2-methoxyethan-1-one], -9%.

With `O=C(COC1CCCC1)N1CCc2nc(N3C4CCC3CNC4)sc2C1` [Example 149, 1-(2-(3,8-diazabicyclo[3.2.1]octan-8-yl)-6,7-dihydrothiazolo[5,4-c]pyridin-5(4H)-yl)-2-(cyclopentyloxy)ethan-1-one], the activity at 10 µM is -2%. Still for that read-out and setting: as for `Cc1cc(F)ccc1OCC(=O)N1CCc2nc(N3C4CCC3CNC4)sc2C1` [Example 145, 1-(2-(3,8-diazabicyclo[3.2.1]octan-8-yl)-6,7-dihydrothiazolo[5,4-c]pyridin-5(4H)-yl)-2-(4-fluoro-2-methylphenoxy)ethan-1-one], the figure is 17%. Still for that read-out and setting: as for `CN1CCN(c2nc3c(s2)CN(C(=O)CC2CCC(F)(F)CC2)CC3(C)C)CC1` [Example 104, 2-(4,4-difluorocyclohexyl)-1-(7,7-dimethyl-2-(4-methylpiperazin-1-yl)-6,7-dihydrothiazolo[5,4-c]pyridin-5(4H)-yl)ethan-1-one], the figure is 0%; as for `O=C(CC1CCCC1)N1CCc2nc(N3CCNCC3)sc2C1` [Example 109, 2-cyclopentyl-1-(2-(piperazin-1-yl)-6,7-dihydrothiazolo[5,4-c]pyridin-5(4H)-yl)ethan-1-one], 6%; as for `O=C(CCc1ccccc1)N1CCc2nc(N3C4CCC3CNC4)sc2C1` [Example 5, 1-(2-(3,8-diazabicyclo[3.2.1]octan-8-yl)-6,7-dihydrothiazolo[5,4-c]pyridin-5(4H)-yl)-3-phenylpropan-1-one], -5%.

In the case of `CC(C)NC(=O)N1CCc2nc(N3C4CCC3CNC4)sc2C1` [Example 51, 2-(3,8-diazabicyclo[3.2.1]octan-8-yl)-N-isopropyl-6,7-dihydrothiazolo[5,4-c]pyridine-5(4H)-carboxamide], the activity at 10 µM is 9%.
